Where two headings read alike, the source gives them in different places.
Legend:
[1] = cited from earlier work
[2] = Dissolution of tacrolimus compositions in 0.005% HPC, pH 4.5, USP <711> apparatus I, baskets at 100 rpm; type: physicochemical
Procedure: Compositions A, B, and C were placed in 0.005% HPC, pH 4.5 according to USP <711>, apparatus I (2009), Baskets at 100 rpm (the dissolution vehicle). As an example of the different release profiles for the three compositions, the amount of medicament released from composition A was 92.07% at 120 min. The amount of medicament released from composition B was less than 10% at 360 min (excluded from graph due to scale). The amount of medicament released from Composition C was 43.55% at 120 min.

Row | Structure (SMILES) | pka value ([1]; first of two printed pka values) | pka value ([1]; second of two printed pka values) | native solubility of tacrolimus in this dissolution vehicle [2]
1 | CN1CCN(C2=Nc3cc(Cl)ccc3Nc3ccccc32)CC1 [clozapine] | 3.98 | 7.62 | –
2 | C=CC[C@@H]1/C=C(\C)C[C@H](C)C[C@H](OC)[C@H]2O[C@@](O)(C(=O)C(=O)N3CCCC[C@H]3C(=O)O[C@H](/C(C)=C/[C@@H]3CC[C@@H](O)[C@H](OC)C3)[C@H](C)[C@@H](O)CC1=O)[C@H](C)C[C@@H]2OC [tacrolimus] | – | – | approximately 43 % dissolved

Reference: patent US20150283092A1, “DRUG DELIVERY COMPOSITION” (Alkermes Pharma Ireland Limited, priority 2009, published 2015)
